In ChEMBL document CHEMBL2396607 (Bioorg Med Chem Lett, 2013):
pIC50: −log10 of the molar value.

Experiments:
[1] = target: T1, Phosphatidylinositol 4,5-bisphosphate 3-kinase catalytic subunit delta isoform (Homo sapiens, UniProt O00329); assay: Inhibition of N-terminal myristoylated P110delta (unknown origin)-mediated AKT phosphorylation at Ser473 expressed in rat Rat1 cells by ELISA; type: cell-based
T1 sequence (O00329 whole entry): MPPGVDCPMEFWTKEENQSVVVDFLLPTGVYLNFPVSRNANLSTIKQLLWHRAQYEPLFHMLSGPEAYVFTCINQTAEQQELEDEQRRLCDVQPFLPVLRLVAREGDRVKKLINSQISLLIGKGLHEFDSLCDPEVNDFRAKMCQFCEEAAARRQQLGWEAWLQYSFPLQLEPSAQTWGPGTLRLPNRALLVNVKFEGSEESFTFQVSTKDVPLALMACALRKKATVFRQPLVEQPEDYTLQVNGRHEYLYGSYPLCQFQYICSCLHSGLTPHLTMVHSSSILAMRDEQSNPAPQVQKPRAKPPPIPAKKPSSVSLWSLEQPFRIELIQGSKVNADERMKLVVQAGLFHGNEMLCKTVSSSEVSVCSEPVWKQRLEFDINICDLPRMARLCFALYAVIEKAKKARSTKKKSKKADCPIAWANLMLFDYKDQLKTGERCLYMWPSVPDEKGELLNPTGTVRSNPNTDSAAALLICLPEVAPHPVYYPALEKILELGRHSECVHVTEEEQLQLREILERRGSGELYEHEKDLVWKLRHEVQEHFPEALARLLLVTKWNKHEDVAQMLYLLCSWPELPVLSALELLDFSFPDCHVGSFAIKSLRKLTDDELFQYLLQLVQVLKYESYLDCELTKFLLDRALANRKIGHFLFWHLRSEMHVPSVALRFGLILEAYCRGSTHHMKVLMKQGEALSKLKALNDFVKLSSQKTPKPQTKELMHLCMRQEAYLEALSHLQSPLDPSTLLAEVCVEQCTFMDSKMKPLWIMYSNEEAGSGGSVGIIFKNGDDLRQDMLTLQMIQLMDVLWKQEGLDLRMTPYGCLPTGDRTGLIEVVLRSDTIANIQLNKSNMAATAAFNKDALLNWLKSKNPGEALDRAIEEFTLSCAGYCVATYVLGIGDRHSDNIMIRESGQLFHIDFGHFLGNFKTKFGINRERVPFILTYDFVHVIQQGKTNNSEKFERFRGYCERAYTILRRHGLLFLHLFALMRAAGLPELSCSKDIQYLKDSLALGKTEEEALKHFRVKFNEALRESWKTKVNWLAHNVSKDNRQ

[2] = target: T2, Phosphatidylinositol 4,5-bisphosphate 3-kinase catalytic subunit beta isoform (Homo sapiens, UniProt P42338); assay: Inhibition of N-terminal myristoylated P110beta (unknown origin)-mediated AKT phosphorylation at Ser473 expressed in rat Rat1 cells by ELISA; type: cell-based
T2 sequence (P42338 whole entry, canonical isoform): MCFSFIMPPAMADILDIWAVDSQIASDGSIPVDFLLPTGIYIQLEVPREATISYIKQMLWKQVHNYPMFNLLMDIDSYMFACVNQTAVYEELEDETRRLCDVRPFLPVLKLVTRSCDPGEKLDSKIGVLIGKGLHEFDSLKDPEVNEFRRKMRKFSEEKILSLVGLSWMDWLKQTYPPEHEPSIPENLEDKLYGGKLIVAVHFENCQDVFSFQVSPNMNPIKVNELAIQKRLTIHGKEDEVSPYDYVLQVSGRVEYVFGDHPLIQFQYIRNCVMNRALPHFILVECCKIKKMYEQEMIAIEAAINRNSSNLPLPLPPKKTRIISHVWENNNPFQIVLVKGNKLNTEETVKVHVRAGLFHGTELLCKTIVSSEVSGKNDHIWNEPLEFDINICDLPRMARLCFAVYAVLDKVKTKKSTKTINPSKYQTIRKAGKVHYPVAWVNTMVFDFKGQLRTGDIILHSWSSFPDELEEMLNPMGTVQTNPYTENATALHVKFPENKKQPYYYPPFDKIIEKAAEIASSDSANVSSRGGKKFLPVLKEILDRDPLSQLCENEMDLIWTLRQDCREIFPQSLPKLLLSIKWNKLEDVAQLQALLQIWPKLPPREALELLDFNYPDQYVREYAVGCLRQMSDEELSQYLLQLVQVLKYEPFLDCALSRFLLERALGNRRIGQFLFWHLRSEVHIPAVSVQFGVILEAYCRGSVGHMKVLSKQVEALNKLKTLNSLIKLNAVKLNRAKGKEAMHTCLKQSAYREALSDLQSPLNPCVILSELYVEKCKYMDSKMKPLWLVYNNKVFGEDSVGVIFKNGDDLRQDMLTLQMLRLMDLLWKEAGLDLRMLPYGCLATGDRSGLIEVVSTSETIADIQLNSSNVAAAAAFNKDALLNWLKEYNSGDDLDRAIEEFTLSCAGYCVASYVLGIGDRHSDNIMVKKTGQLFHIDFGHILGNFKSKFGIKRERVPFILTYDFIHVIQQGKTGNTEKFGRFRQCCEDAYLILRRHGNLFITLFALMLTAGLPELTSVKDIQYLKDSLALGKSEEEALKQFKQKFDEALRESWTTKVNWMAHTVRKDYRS

[3] = target: T3, Phosphatidylinositol 4,5-bisphosphate 3-kinase catalytic subunit alpha isoform (Homo sapiens, UniProt P42336); assay: Inhibition of N-terminal myristoylated P110alpha (unknown origin)-mediated AKT phosphorylation at Ser473 expressed in rat Rat1 cells by ELISA; type: cell-based
T3 sequence (P42336 whole entry, canonical isoform): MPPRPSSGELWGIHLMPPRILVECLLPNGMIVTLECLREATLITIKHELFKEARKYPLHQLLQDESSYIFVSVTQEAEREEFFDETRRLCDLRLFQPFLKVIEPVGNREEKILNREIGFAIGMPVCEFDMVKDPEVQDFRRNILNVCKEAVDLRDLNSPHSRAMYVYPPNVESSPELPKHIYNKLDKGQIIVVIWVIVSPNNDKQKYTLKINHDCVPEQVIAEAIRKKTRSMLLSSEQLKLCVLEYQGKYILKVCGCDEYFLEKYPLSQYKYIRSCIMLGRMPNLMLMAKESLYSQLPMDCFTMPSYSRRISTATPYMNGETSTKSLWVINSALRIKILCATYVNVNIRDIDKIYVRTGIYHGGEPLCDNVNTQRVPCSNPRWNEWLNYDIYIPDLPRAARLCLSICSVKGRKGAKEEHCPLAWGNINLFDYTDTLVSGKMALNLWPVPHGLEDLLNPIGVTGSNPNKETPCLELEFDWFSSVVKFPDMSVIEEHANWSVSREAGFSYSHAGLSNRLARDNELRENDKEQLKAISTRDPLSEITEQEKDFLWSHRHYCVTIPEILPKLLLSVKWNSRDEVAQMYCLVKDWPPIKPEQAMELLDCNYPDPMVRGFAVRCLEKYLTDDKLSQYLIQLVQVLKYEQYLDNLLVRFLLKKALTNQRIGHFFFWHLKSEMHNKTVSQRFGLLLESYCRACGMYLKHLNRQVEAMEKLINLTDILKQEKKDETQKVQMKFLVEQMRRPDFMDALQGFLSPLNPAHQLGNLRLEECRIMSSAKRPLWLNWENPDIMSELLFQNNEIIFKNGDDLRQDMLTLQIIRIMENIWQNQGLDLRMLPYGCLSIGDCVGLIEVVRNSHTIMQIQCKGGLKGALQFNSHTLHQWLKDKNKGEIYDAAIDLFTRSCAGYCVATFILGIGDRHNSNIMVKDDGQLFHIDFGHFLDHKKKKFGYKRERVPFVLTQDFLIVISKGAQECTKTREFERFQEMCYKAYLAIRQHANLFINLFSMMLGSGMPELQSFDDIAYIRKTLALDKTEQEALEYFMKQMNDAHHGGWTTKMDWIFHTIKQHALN

Cytochrome P450 3A4 = Cytochrome P450 3A4 (Homo sapiens, UniProt P08684); assay: Inhibition of CYP3A4 (unknown origin); type: ADME
Chain of Cytochrome P450 3A4 (P08684 whole entry): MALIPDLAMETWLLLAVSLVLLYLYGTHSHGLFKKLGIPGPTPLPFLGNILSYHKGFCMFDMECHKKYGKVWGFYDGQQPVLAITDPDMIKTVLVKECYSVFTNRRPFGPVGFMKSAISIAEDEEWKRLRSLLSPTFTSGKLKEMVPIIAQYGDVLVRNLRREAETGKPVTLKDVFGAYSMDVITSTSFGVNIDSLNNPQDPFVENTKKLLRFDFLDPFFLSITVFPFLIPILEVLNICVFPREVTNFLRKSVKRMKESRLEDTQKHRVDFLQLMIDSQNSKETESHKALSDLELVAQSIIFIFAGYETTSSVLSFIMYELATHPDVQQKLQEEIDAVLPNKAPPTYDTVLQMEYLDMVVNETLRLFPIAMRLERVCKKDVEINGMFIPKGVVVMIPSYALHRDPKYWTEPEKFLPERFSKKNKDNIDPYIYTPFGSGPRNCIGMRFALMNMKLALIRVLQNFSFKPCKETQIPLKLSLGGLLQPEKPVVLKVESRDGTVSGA

[4] = Clearance in rat liver microsomes in presence of cofactor for glucuronyl transferases; type: ADME, Microsome; conditions: read-out: CLH
[5] = Clearance in Sprague-Dawley rat at 1 mg/kg, iv; type: ADME, organism-based; design: dose 1 mg/kg, route intravenous; conditions: in vivo
[6] = Half life in Sprague-Dawley rat at 1 mg/kg, iv; type: ADME, organism-based; design: dose 1 mg/kg, route intravenous; conditions: in vivo
[7] = Plasma protein binding in Sprague-Dawley rat at 1 mg/kg, iv; type: ADME, organism-based; design: dose 1 mg/kg, route intravenous; conditions: read-out: PPB (converted)
[8] = Volume of distribution at steady state in Sprague-Dawley rat at 1 mg/kg, iv; type: ADME, organism-based; design: dose 1 mg/kg, route intravenous; conditions: in vivo, read-out: Vdss
[9] = target: T1, Phosphatidylinositol 4,5-bisphosphate 3-kinase catalytic subunit delta isoform; assay: Inhibition of P110delta (unknown origin) using PIP2:PS as substrate by TR-FRET assay
[10] = target: Phosphatidylinositol 4,5-bisphosphate 3-kinase catalytic subunit gamma isoform (Homo sapiens, UniProt P48736); assay: Inhibition of P110gamma (unknown origin) using PIP2:PS as substrate by TR-FRET assay
Chain of Phosphatidylinositol 4,5-bisphosphate 3-kinase catalytic subunit gamma isoform (P48736 whole entry, canonical isoform): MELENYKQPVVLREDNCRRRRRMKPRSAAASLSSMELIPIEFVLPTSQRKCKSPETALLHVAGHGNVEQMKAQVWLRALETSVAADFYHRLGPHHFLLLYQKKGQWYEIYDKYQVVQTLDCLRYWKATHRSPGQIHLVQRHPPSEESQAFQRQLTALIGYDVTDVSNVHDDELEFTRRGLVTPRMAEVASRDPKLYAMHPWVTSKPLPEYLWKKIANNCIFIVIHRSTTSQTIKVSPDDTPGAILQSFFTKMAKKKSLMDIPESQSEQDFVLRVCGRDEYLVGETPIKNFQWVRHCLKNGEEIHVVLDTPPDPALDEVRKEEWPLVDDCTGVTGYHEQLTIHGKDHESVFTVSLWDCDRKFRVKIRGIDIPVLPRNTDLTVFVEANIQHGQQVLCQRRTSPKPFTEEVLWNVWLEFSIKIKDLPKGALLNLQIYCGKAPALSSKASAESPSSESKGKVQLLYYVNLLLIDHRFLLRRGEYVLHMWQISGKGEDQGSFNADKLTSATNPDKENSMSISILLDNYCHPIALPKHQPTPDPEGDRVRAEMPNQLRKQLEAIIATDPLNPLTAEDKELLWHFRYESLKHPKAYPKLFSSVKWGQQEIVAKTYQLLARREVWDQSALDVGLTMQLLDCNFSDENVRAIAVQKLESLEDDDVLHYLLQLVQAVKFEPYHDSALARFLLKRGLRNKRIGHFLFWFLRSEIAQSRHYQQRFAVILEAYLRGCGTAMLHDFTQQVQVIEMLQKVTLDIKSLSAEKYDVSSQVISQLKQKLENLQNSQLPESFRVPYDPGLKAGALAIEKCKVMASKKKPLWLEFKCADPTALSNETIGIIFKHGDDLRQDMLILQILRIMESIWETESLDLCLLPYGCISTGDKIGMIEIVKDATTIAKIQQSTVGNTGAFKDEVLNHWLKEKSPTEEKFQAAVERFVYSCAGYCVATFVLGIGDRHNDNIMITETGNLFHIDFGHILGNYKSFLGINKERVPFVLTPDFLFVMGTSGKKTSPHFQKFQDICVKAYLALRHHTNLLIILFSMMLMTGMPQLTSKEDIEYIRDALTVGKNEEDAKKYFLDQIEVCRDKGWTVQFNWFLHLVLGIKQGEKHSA

[11] = target: T2, Phosphatidylinositol 4,5-bisphosphate 3-kinase catalytic subunit beta isoform; assay: Inhibition of P110beta (unknown origin) using L-a-phosphatidylinositol as substrate by luminescence assay
[12] = target: T3, Phosphatidylinositol 4,5-bisphosphate 3-kinase catalytic subunit alpha isoform; assay: Inhibition of P110alpha (unknown origin) using L-a-phosphatidylinositol as substrate by luminescence assay
[13] = Clearance in rat liver microsomes; type: ADME, Microsome; conditions: read-out: CLH
[14] = Cmax in mouse at 3 mg/kg, po; type: ADME, organism-based; design: dose 3 mg/kg, route oral; conditions: in vivo
[15] = Clearance in dog at 0.1 mg/kg, iv and 0.6 mg/kg, po; type: ADME, organism-based, Canis lupus familiaris; conditions: in vivo
[16] = target: Serine/threonine-protein kinase mTOR (Homo sapiens, UniProt P42345); assay: Inhibition of mTOR (unknown origin)
[17] = Clearance in rat at 3.4 mg/kg, iv and 15 mg/kg, po; type: ADME, organism-based; conditions: in vivo
[18] = target: Serine-protein kinase ATM (Homo sapiens, UniProt Q13315); assay: Inhibition of ATM (unknown origin) phosphorylation at Ser1981 by cell-based assay
[19] = target: DNA-dependent protein kinase catalytic subunit (Homo sapiens, UniProt P78527); assay: Inhibition of DNA-PK (unknown origin)
[20] = Oral bioavailability in dog at 0.6 mg/kg; type: ADME, organism-based, Canis lupus familiaris; conditions: in vivo
[21] = Cmax in dog at 0.6 mg/kg, po; type: ADME, organism-based, Canis lupus familiaris; design: dose 0.6 mg/kg, route oral; conditions: in vivo
[22] = Clearance in mouse at 1 mg/kg, iv and 3 mg/kg, po; type: ADME, organism-based; conditions: in vivo
[23] = target: Phosphatidylinositol 3-kinase catalytic subunit type 3 (Homo sapiens, UniProt Q8NEB9); assay: Inhibition of VPS34 (unknown origin)
Chain of Phosphatidylinositol 3-kinase catalytic subunit type 3 (Q8NEB9 whole entry): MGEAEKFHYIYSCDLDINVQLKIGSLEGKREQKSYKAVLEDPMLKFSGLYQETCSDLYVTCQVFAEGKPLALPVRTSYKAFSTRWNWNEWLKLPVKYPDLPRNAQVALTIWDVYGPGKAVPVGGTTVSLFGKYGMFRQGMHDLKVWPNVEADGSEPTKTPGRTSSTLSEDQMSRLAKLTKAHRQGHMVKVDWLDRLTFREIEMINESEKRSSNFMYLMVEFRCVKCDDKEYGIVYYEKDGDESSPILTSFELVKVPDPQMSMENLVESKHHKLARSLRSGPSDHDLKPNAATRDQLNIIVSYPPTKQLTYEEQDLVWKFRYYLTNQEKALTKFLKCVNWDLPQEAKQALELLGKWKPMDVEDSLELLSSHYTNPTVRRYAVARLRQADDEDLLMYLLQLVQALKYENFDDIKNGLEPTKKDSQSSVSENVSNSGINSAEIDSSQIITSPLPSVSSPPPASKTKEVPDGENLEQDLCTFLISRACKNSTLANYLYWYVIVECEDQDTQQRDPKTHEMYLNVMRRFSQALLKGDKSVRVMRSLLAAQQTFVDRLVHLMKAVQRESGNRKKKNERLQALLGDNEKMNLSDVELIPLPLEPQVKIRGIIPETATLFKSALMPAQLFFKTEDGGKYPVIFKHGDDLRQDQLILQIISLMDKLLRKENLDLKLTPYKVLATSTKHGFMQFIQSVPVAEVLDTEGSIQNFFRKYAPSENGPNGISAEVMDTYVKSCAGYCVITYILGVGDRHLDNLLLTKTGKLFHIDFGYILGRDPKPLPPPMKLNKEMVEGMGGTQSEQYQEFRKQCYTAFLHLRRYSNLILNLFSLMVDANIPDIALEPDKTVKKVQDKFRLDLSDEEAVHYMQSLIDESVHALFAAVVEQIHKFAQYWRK

[24] = Oral bioavailability in mouse at 3 mg/kg; type: ADME, organism-based; conditions: in vivo
[25] = target: Serine/threonine-protein kinase ATR (Homo sapiens, UniProt Q13535); assay: Inhibition of ATR (unknown origin)
[26] = Cmax in rat at 15 mg/kg, po; type: ADME, organism-based; design: dose 15 mg/kg, route oral; conditions: in vivo

SMILES | pIC50 [1] | pIC50 [2] | pIC50 [3] | pIC50 (Cytochrome P450 3A4) | microsomal CLint [4] | pIC50 [9] | pIC50 [10] | pIC50 [11] | pIC50 [12] | microsomal CLint [13] | further results
Cc1nc(NC(=O)N2CCC[C@H]2C(N)=O)sc1-c1ccc(-n2cccn2)cc1 | 6.21 | 5.68 | 6.89 | – | – | – | – | – | – | – | –
Cc1nc(NC(=O)N2CCC[C@H]2C(N)=O)sc1-c1ccnc(C(C)(C)C)n1 | – | – | – | < 5.00 | 62 µL/min/mg | – | – | – | – | – | clearance [5]: 21 mL/min/kg; half-life [6]: 1.2 h; fraction unbound [7]: 0.06; Vd [8]: 1.2 L/kg
Cc1nc(NC(=O)N2CCC[C@H]2C(N)=O)sc1-c1ccnc(C(C)(C)C)c1 | 6.14 | 5.10 | – | < 5.00 | 77 µL/min/mg | 6.48 | 6.37 | – | – | – | clearance [5]: 39 mL/min/kg; half-life [6]: 3.4 h; Vd [8]: 1.4 L/kg
CNC(=O)[C@@H]1CCCN1C(=O)Nc1nc(C)c(-c2ccnc(C(C)(C)C)c2)s1 | 5.24 | < 5.00 | < 5.00 | – | 104 µL/min/mg | 5.38 | 5.34 | < 5.04 | 5.57 | – | –
Cc1nc(NC(=O)N2CCCC2)sc1-c1ccnc(C(C)(C)C)c1 | 6.11 | < 5.00 | 5.60 | – | 186 µL/min/mg | 6.23 | 6.03 | 5.31 | 6.21 | – | –
Cc1nc(NC(=O)N2CCC[C@@H]2C(N)=O)sc1-c1ccnc(C(C)(C)C)c1 | – | – | – | – | 36 µL/min/mg | 5.48 | < 5.00 | 5.09 | – | – | –
Cc1nc(NC(=O)N2CC[C@H]2C(N)=O)sc1-c1ccnc(C(C)(C)C)n1 | 5.80 | 5.19 | 6.64 | – | – | 6.54 | 6.49 | 5.92 | 7.72 | 44 µL/min/mg | –
Cc1nc(NC(=O)N2CCC[C@H]2C(N)=O)sc1-c1ccnc(C2(C#N)CC2)c1 | < 5.00 | < 5.00 | 6.19 | < 5.00 | – | 5.70 | 5.96 | – | – | 41 µL/min/mg | –
Cc1nc(NC(=O)N2CCC[C@H]2C(N)=O)sc1-c1ccnc(C(C)C)n1 | 5.89 | 5.23 | 7.00 | < 5.00 | – | 6.02 | 5.85 | 5.40 | 7.80 | 36 µL/min/mg | –
Cc1nc(NC(=O)N2CCC[C@H]2C(N)=O)sc1-c1ccnc(C2CCC2)n1 | < 5.00 | 5.14 | 6.36 | < 5.00 | – | 6.16 | 6.21 | 5.74 | 7.70 | 53 µL/min/mg | –
Cc1nc(NC(=O)N2CCC[C@H]2C(N)=O)sc1-c1cc(C(C)C)ncn1 | < 5.00 | < 5.00 | 5.34 | – | – | – | – | < 5.04 | 6.49 | – | –
CC(C)(c1cc(-c2cnc(NC(=O)N3CCC[C@H]3C(N)=O)s2)ccn1)C(F)(F)F | 5.54 | 5.62 | 6.85 | < 5.00 | – | 5.96 | 6.08 | – | 8.02 | 27 µL/min/mg | –
CC(C)(c1cc(-c2sc(NC(=O)N3CCC[C@H]3C(N)=O)nc2Cl)ccn1)C(F)(F)F | 5.31 | < 5.00 | 6.47 | – | – | 6.37 | 5.85 | – | – | 17 µL/min/mg | –
CCN(CC)c1nccc(-c2sc(NC(=O)N3CCC[C@H]3C(N)=O)nc2C)n1 | 5.60 | 5.36 | 6.77 | – | – | 6.47 | 6.39 | – | – | 96 µL/min/mg | –
Cc1nc(NC(=O)N2CCC[C@H]2C(N)=O)sc1-c1ccnc(C2(C)CC2)n1 | 5.52 | 5.02 | – | < 5.00 | – | 6.09 | 6.16 | 5.51 | – | 47 µL/min/mg | clearance [5]: 8 mL/min/kg; half-life [6]: 1.7 h; fraction unbound [7]: 0.029; Vd [8]: 0.9 L/kg
Cc1nc(NC(=O)N2CCC[C@H]2C(N)=O)sc1-c1ccnc(C(C)(C)C(F)(F)F)c1 [ALPELISIB] | – | – | – | – | – | – | – | – | – | – | Cmax [14]: 520 nM; clearance [15]: 8 mL/min/kg; pIC50 [16]: < 5.04; clearance [17]: 10 mL/min/kg; pIC50 [18]: < 5.00; pIC50 [19]: < 5.04; bioavailability [20]: 140%; Cmax [21]: 1070 nM; clearance [22]: 8 mL/min/kg; pIC50 [23]: < 5.04; clearance [5]: 10 mL/min/kg; bioavailability [24]: 106%; pIC50 [25]: < 5.04; half-life [6]: 2.9 h; fraction unbound [7]: 0.057; Vd [8]: 1.9 L/kg; Cmax [26]: 190 nM
